The results in this text go back to patent US9139609B2, “C-4″ position substituted macrolide derivative” (priority 2011, dated 2015).

Common to all, as to assay type: cell-based
Experiment [1] has as its system Streptococcus pneumoniae ATCC700904. The experiment can be described thus: In vitro antibacterial activity, microbroth dilution method (CLSI method), test bacterium C (erythromycin resistant). To be noted: read-out: MIC (minimum inhibitory concentration), test bacterium C. As to the method:
(§1) In vitro antibacterial activities of the compounds of the present invention against various test bacteria were measured according to the microbroth dilution method (CLSI method). Among them, the bacteria C, D and E are erythromycin resistant bacteria. The MIC values (minimum inhibitory concentration, μg/ml) for the test bacteria A and B are exemplified in Table 22.
On the technique in general: Dilution methods test growth across graded concentrations, often in twofold steps.

For experiment [2], the system named is Streptococcus pyogenes M808. The experiment can be described thus: In vitro antibacterial activity, microbroth dilution method (CLSI method), test bacterium D (erythromycin resistant). As to conditions: read-out: MIC (minimum inhibitory concentration), test bacterium D. As to the method: as §1
For experiment [3], the system named is Mycoplasma pneumoniae MSC04933. The experiment can be described thus: In vitro antibacterial activity, microbroth dilution method (CLSI method), test bacterium E (erythromycin resistant). To be noted: read-out: MIC (minimum inhibitory concentration), test bacterium E. As for the experimental part:
as §1

For experiment [4], the system named is Haemophilus infuenzae ATCC43095. The experiment can be described thus: In vitro antibacterial activity, microbroth dilution method (CLSI method), test bacterium A. To be noted: for MIC: read-out: MIC (minimum inhibitory concentration), test bacterium A. As for the experimental part: as §1
Experiment [5] concerns Streptococcus pneumoniae ATCC49619. In words: In vitro antibacterial activity, microbroth dilution method (CLSI method), test bacterium B. To be noted: for MIC: read-out: MIC (minimum inhibitory concentration), test bacterium B. As for the experimental part:
as §1

Structures are written as SMILES. In brackets after ≈: the same amount, converted by molar mass.

Consider `CC[C@H]1OC(=O)[C@H](C)[C@@H](O[C@H]2C[C@@](C)(OC)[C@@](O)(CN(C)CCN(CC)CC)[C@H](C)O2)[C@H](C)[C@@H](O[C@@H]2O[C@H](C)C[C@H](N(C)C)[C@H]2O)[C@@](C)(OC)C[C@@H](C)C(=O)[C@H](C)[C@H]2NC(=O)O[C@@]21C` [Example 299], for which the MIC in experiment [1] was 0.12 to 0.25 µg/mL (≈ 0.131 to 0.273 µM); in experiment [2] it was at least 16 µg/mL; in experiment [3], 0.5 to 1 µg/mL (≈ 0.546 to 1.09 µM).
On to `CC[C@H]1OC(=O)[C@H](C)[C@@H](O[C@H]2C[C@@](C)(OC)[C@@](O)(CN(C)CCN(C)C(C)(C)c3ccccc3OC)[C@H](C)O2)[C@H](C)[C@@H](O[C@@H]2O[C@H](C)C[C@H](N(C)C)[C@H]2O)[C@@](C)(OC)C[C@@H](C)[C@@H]2NCCN3C(=O)O[C@@]1(C)[C@H]3[C@@H]2C` [Example 340], for which the values for the MIC in experiment [1], in experiment [2] and in experiment [3] were 0.12 to 0.25 µg/mL (≈ 0.114 to 0.238 µM), at most 2 µg/mL and at most 0.25 µg/mL, respectively.
As to `CC[C@H]1OC(=O)[C@H](C)[C@@H](O[C@H]2C[C@@](C)(OC)[C@@](O)(CN(C)CCN3C4CCC3CC4)[C@H](C)O2)[C@H](C)[C@@H](O[C@@H]2O[C@H](C)C[C@H](N(C)C)[C@H]2O)[C@@](C)(OC)C[C@@H](C)C(=O)[C@H](C)[C@H]2N(CCNS(C)(=O)=O)C(=O)O[C@]12C` [Example446], the MIC in experiment [4] stood at 4 µg/mL (≈ 3.77 µM); in experiment [5], 0.03 µg/mL (≈ 0.0283 µM).
Turning to `CC[C@H]1OC(=O)[C@H](C)[C@@H](O[C@H]2C[C@@](C)(OC)[C@@](O)(CN(CC)CCN(CC)CC)[C@H](C)O2)[C@H](C)[C@@H](O[C@@H]2O[C@H](C)C[C@H](N(C)C)[C@H]2O)[C@@](C)(OC)C[C@@H](C)C(=O)[C@H](C)[C@H]2N(CCNS(C)(=O)=O)C(=O)O[C@]12C` [Example413], the MIC was 4 µg/mL (≈ 3.81 µM) in experiment [4] and 0.03 µg/mL (≈ 0.0286 µM) in experiment [5].
Turning to `CC[C@H]1OC(=O)[C@H](C)[C@@H](O[C@H]2C[C@@](C)(OC)[C@@](O)(CN(C)CCN(C)C)[C@H](C)O2)[C@H](C)[C@@H](O[C@@H]2O[C@H](C)C[C@H](N(C)C)[C@H]2O)[C@@](C)(OC)C[C@@H](C)C(=O)[C@H](C)[C@H]2C(SCCCn3cnc4c(N)ncnc43)C(=O)O[C@@]21C` (some centres unmarked) [Example364], the MIC was determined as 8 µg/mL (≈ 7.32 µM) in experiment [4] and 0.03 µg/mL (≈ 0.0274 µM) in experiment [5].
Regarding `CC[C@H]1OC(=O)[C@H](C)[C@@H](O[C@H]2C[C@@](C)(OC)[C@@](O)(CN(C)CCN(C)C(C)(C)c3ccccc3OC)[C@H](C)O2)[C@H](C)[C@@H](O[C@@H]2O[C@H](C)C[C@H](N(C)C)[C@H]2O)[C@@]2(C)C[C@@H](C)C3(NCCN4C(=O)O[C@@]1(C)[C@H]4[C@H]3C)O2` [Example341], in experiment [4], the “MIC (minimum inhibitory concentration), test bacterium A” value was 4 µg/mL (≈ 3.87 µM). Also, the “MIC (minimum inhibitory concentration), test bacterium B” value in experiment [5] turned out to be 0.06 µg/mL (≈ 0.0581 µM).
Take `CC[C@H]1OC(=O)[C@H](C)[C@@H](O[C@H]2C[C@@](C)(OC)[C@@](O)(CN(C)CCN(CC)CC)[C@H](C)O2)[C@H](C)[C@@H](O[C@@H]2O[C@H](C)C[C@H](N(C)C)[C@H]2O)[C@@](C)(OC)C[C@@H](C)C(=O)[C@H](C)[C@H]2NC(=O)O[C@@]21C` [Example299]: the MIC in experiment [4] turned out to be 4 µg/mL (≈ 4.37 µM); in experiment [5], 0.03 µg/mL (≈ 0.0328 µM).
Regarding `CC[C@H]1OC(=O)[C@H](C)[C@@H](O[C@H]2C[C@@](C)(OC)[C@@](O)(CN(C)CCN(C(C)C)C(C)C)[C@H](C)O2)[C@H](C)[C@@H](O[C@@H]2O[C@H](C)C[C@H](N(C)C)[C@H]2O)[C@@](C)(OC)C[C@@H](C)C(=NO)[C@H](C)[C@H]2N(CCNS(C)(=O)=O)C(=O)O[C@]12C` [Example 458], the MIC was 0.12 to 0.25 µg/mL (≈ 0.111 to 0.232 µM) in experiment [1], 4 to 8 µg/mL (≈ 3.71 to 7.41 µM) in experiment [2], 4 µg/mL (≈ 3.71 µM) in experiment [4] and 0.06 µg/mL (≈ 0.0556 µM) in experiment [5].
For the molecule `CC[C@H]1OC(=O)[C@H](C)[C@@H](O[C@H]2C[C@@](C)(OC)[C@@](O)(CN(C)CCN(C(C)C)C(C)C)[C@H](C)O2)[C@H](C)[C@@H](O[C@@H]2O[C@H](C)C[C@H](N(C)C)[C@H]2O)[C@@](C)(OC)C[C@@H](C)C(=O)[C@H](C)[C@H]2N(CCOS(N)(=O)=O)C(=O)O[C@]12C` [Example456], the results for the MIC in experiment [4] and in experiment [5] were 2 µg/mL (≈ 1.88 µM) and 0.03 µg/mL (≈ 0.0281 µM), respectively.
In the case of `CC[C@H]1OC(=O)[C@H](C)[C@@H](O[C@H]2C[C@@](C)(OC)[C@@](O)(CN(C)CCN(CC)CC)[C@H](C)O2)[C@H](C)[C@@H](O[C@@H]2O[C@H](C)C[C@H](N(C)C)[C@H]2O)[C@@](C)(OC)C[C@@H](C)C(=O)[C@H](C)[C@H]2N(CCN3CCNS3(=O)=O)C(=O)O[C@]12C` [Example440], the MIC in experiment [4] was found to be 4 µg/mL (≈ 3.76 µM); in experiment [5], 0.03 µg/mL (≈ 0.0282 µM).
For `CC[C@H]1OC(=O)[C@H](C)[C@@H](O[C@H]2C[C@@](C)(OC)[C@@](O)(CN(C)CCN(C)C(C)(C)c3ccccc3OC)[C@H](C)O2)[C@H](C)[C@@H](O[C@@H]2O[C@H](C)C[C@H](N(C)C)[C@H]2O)[C@]2(C)C[C@@H](C)C(O2)[C@H](C)[C@H]2NC(=O)O[C@@]21C` [Example332] the same measures were 4 µg/mL (≈ 4.04 µM) and 0.06 µg/mL (≈ 0.0605 µM).
In the case of `CC[C@H]1OC(=O)[C@H](C)[C@@H](O[C@H]2C[C@@](C)(OC)[C@@](O)(CN(C)CCN(CC)C(=O)OC)[C@H](C)O2)[C@H](C)[C@@H](O[C@@H]2O[C@H](C)C[C@H](N(C)C)[C@H]2O)[C@@](C)(OC)C[C@@H](C)C(=O)[C@H](C)[C@H]2NC(=O)O[C@@]21C` [Example264], the results for the MIC in experiment [4] and in experiment [5] were 8 µg/mL (≈ 8.46 µM) and 0.06 µg/mL (≈ 0.0635 µM), respectively.
In the case of `CC[C@H]1OC(=O)[C@H](C)[C@@H](O[C@H]2C[C@@](C)(OC)[C@@](O)(CN(C)CCN(C)C)[C@H](C)O2)[C@H](C)[C@@H](O[C@@H]2O[C@H](C)C[C@H](N(C)C)[C@H]2O)[C@@](C)(OC(=O)NC/C=C/c2ccc3ncccc3c2)C[C@@H](C)C(=O)[C@H](C)[C@H]2NC(=O)O[C@@]21C` [Example348], the figures for the MIC in experiment [4] and in experiment [5] were 16 µg/mL (≈ 14.8 µM) and 0.03 µg/mL (≈ 0.0277 µM), respectively.
As to `CC[C@H]1OC(=O)[C@H](C)[C@@H](O[C@H]2C[C@@](C)(OC)[C@@](O)(CN(C)CCN(C(C)C)C(C)C)[C@H](C)O2)[C@H](C)[C@@H](O[C@@H]2O[C@H](C)C[C@H](N(C)C)[C@H]2O)[C@@](C)(OC)C[C@@H](C)C(=O)[C@H](C)[C@H]2N(CCNS(C)(=O)=O)C(=O)O[C@]12C` [Example404], the MIC in experiment [4] worked out at 4 µg/mL (≈ 3.76 µM); in experiment [5], 0.03 µg/mL (≈ 0.0282 µM).
Regarding `CC[C@H]1OC(=O)[C@H](C)[C@@H](O[C@H]2C[C@@](C)(OC)[C@@](O)(CN(C)C(=O)CN(CC)CC)[C@H](C)O2)[C@H](C)[C@@H](O[C@@H]2O[C@H](C)C[C@H](N(C)C)[C@H]2O)[C@@](C)(OC)C[C@@H](C)C(=O)[C@H](C)[C@H]2NC(=O)O[C@@]21C` [Example329], the values for the MIC in experiment [4] and in experiment [5] were 8 µg/mL (≈ 8.61 µM) and 0.03 µg/mL (≈ 0.0323 µM), respectively.
On to `CC[C@H]1OC(=O)[C@H](C)[C@@H](O[C@H]2C[C@@](C)(OC)[C@@](O)(CN(C)CCN(C)C)[C@H](C)O2)[C@H](C)[C@@H](O[C@@H]2O[C@H](C)C[C@H](N(C)C)[C@H]2O)[C@@](C)(OC)C[C@@H](C)C(=O)[C@H](C)[C@H]2N(C)C(=O)O[C@]12C` [Example183], for which the MIC was determined as 8 µg/mL (≈ 8.88 µM) in experiment [4] and 0.016 µg/mL (≈ 0.0178 µM) in experiment [5].
Regarding `CC[C@H]1OC(=O)[C@H](C)[C@@H](O[C@H]2C[C@@](C)(OC)[C@@](O)(CN(C)CCN(C(C)C)C(C)C)[C@H](C)O2)[C@H](C)[C@@H](O[C@@H]2O[C@H](C)C[C@H](N(C)C)[C@H]2O)[C@@](C)(OC)C[C@@H](C)C(=O)[C@H](C)[C@H]2N(CCS(=O)(=O)NC)C(=O)O[C@]12C` [Example451], the MIC in experiment [4] was 4 µg/mL (≈ 3.76 µM); in experiment [5], 0.03 µg/mL (≈ 0.0282 µM).
